Results reported in patent US11970497B2, “Tricyclic AKR1C3 dependent KARS inhibitors” (Novartis AG, priority 2019, dated 2024).

Tests used:
Experiment in all cases: Expanded lung cancer cell line proliferation assay
Assay type in all cases: cell-based
Calu-6 = conditions: Homo sapiens; Calu-6, 72 h, average of PrestoBlue and Cell Titer Glo; AKR1C3 32.5 TPM; read-out: Absolute Qualified AC50
From the text: (§1) Cellular Proliferation Assay to Assess Compound Activity in an Expanded Panel of 57 NRF2 Pathway Mutant and Wild Type Lung Cancer Cell Lines.
(§2) Both the PrestoBlue Cell Viability Reagent and Cell Titer Glo were multiplexed together as the final assay readout. PrestoBlue is a cell permeable resazurin-based solution that utilizes the reducing power of living cells to quantitatively measure their proliferation. Cell Titer Glo measures the amount of ATP present, an indicator of metabolically active cells.
(§3) Expanded Lung Cancer Cell Line Proliferation Assay Outline, Analysis and Profiling Results
(§4) Cells were seeded into 384 well assay plates (Greiner Bio-One, Catalog #781080) using the Thermo Scientific Matrix WellMate microplate dispenser and Thermo Scientific Matrix WellMate small bore disposable tubing cartridges (Catalog #201-30002) in 30 μl of growth media (RPMI-1640 supplemented with 10% fetal bovine serum and 1% penicillin/streptomycin) per well (1000 to 2000 cells/well depending on doubling time). Following cell plating, assay plates were placed into tissue culture incubator at 37° C./5% CO2 overnight. The next day one assay plate for each cell line was used for a Day 0 Cell Titer Glo and PrestoBlue readout. 3 μl of PrestoBlue Cell Viability Reagent (Thermo Scientific, Catalog #A13262) was added to each well and then assay plates were incubated at 37° C./5% CO2 for 30 minutes prior to fluorescence readout on the EnVision 2105 multimode plate reader (Perkin Elmer). Following the PrestoBlue readout 18 μl of Cell Titer Glo (Promega, Catalog #G7572) was then added to each well, allowing plates to incubate at room temperature for 10 minutes prior to luminescence readout on the EnVision. Compound was then added to the remaining assay plates (each cell line run in triplicates) using the Labcyte Inc Echo 555 acoustic liquid handler. Compounds were arrayed into a Labcyte Inc Echo qualified 384 well LDV microplate (Cat #LP-0200-GNF10). Compounds were serially diluted 1:3.16 to generate an 8 point dose response for a final top concentration of 1 μM. DMSO (0.3%) was used as the neutral control (NC) and MG132 (30 μM) was used as the active control (AC). 90 nl of compounds were added to 30 μl of cells using the Labcyte Inc Echo 555 acoustic liquid handler for a final DMSO assay concentration of 0.3%. Following compound addition, assay plates were spun down in a tabletop centrifuge at 500 rpm for 1 minute and then placed into tissue culture incubator at 37° C./5% CO2 for 72 h. Following the 72 h incubation, all assay plates were readout using PrestoBlue and Cell Titer Glo using the same conditions previously described for the Day 0 readout. The Day 0 readout (untreated cells) was used to compare to the 72 h DMSO treated samples on each assay plate as a way of tracking each cell line's fold growth. NC1 control based normalization was used for data analysis in Helios, which incorporates the DMSO neutral control (NC) and MG132 active control (AC) for generating dose response curves that are then used to calculate the Absolute Qualified AC50 calls for each compound and cell line.
(§5) NC1 normalization calculation model: NC1: xn=±(x−NC)/(AC−NC)
(§6) +/− is set by the inhibition type parameter setting where NC and AC are averages (mean or median) over the corresponding NC and AC well values. The Qualified Absolute AC50 values for Compound 36 and Compound 40 are listed in the table below and are represented as the average activity in both the PrestoBlue and Cell Titer Glo assay readouts.
(§7) Absolute Qualified AC50 Values Listed Below are a Representation of Each Compounds' Average Activity in Both the PrestoBlue and Cell Titer Glo Assay Readouts.

ChaGo-K-1 = conditions: Homo sapiens; ChaGo-K-1, 72 h, average of PrestoBlue and Cell Titer Glo; AKR1C3 1.5 TPM; read-out: Absolute Qualified AC50
From the text: as §1, §2, §3, §4, §5, §6, §7

DMS-53 = conditions: Homo sapiens; DMS-53, 72 h, average of PrestoBlue and Cell Titer Glo; AKR1C3 59.7 TPM; read-out: Absolute Qualified AC50
From the text: as §1, §2, §3, §4, §5, §6, §7

HCC-44 = conditions: Homo sapiens, HCC44; HCC-44, 72 h, average of PrestoBlue and Cell Titer Glo; AKR1C3 134.3 TPM; read-out: Absolute Qualified AC50
From the text: as §1, §2, §3, §4, §5, §6, §7

LCLC-103H = conditions: Homo sapiens, 72 h, average of PrestoBlue and Cell Titer Glo, AKR1C3 2.6 TPM, read-out: Absolute Qualified AC50
From the text: as §1, §2, §3, §4, §5, §6, §7

NCI-H1650 = conditions: Homo sapiens; NCI-H1650, 72 h, average of PrestoBlue and Cell Titer Glo; AKR1C3 1.3 TPM; read-out: Absolute Qualified AC50
From the text: as §1, §2, §3, §4, §5, §6, §7

NCI-H1944 = conditions: Homo sapiens; NCI-H1944, 72 h, average of PrestoBlue and Cell Titer Glo; AKR1C3 3164.3 TPM; read-out: Absolute Qualified AC50
From the text: as §1, §2, §3, §4, §5, §6, §7

NCI-H2023 = conditions: NCI-H2023, 72 h, average of PrestoBlue and Cell Titer Glo; AKR1C3 1424.8 TPM; read-out: Absolute Qualified AC50
From the text: as §1, §2, §3, §4, §5, §6, §7

NCI-H2347 = conditions: Homo sapiens; NCI-H2347, 72 h, average of PrestoBlue and Cell Titer Glo; AKR1C3 8.9 TPM; read-out: Absolute Qualified AC50
From the text: as §1, §2, §3, §4, §5, §6, §7

NCI-H23 = conditions: Homo sapiens; NCI-H23, 72 h, average of PrestoBlue and Cell Titer Glo; AKR1C3 1 TPM; read-out: Absolute Qualified AC50
From the text: as §1, §2, §3, §4, §5, §6, §7

NCI-H2405 = conditions: Homo sapiens; NCI-H2405, 72 h, average of PrestoBlue and Cell Titer Glo; AKR1C3 189.1 TPM; read-out: Absolute Qualified AC50
From the text: as §1, §2, §3, §4, §5, §6, §7

NCI-H810 = conditions: Homo sapiens; NCI-H810, 72 h, average of PrestoBlue and Cell Titer Glo; AKR1C3 52.5 TPM; read-out: Absolute Qualified AC50
From the text: as §1, §2, §3, §4, §5, §6, §7

NCI-H838 = conditions: Homo sapiens; NCI-H838, 72 h, average of PrestoBlue and Cell Titer Glo; AKR1C3 233 TPM; read-out: Absolute Qualified AC50
From the text: as §1, §2, §3, §4, §5, §6, §7

PC-14 = conditions: Homo sapiens; PC-14, 72 h, average of PrestoBlue and Cell Titer Glo; AKR1C3 1466.3 TPM; read-out: Absolute Qualified AC50
From the text: as §1, §2, §3, §4, §5, §6, §7

Structure (SMILES)	AC50 (Calu-6)	AC50 (ChaGo-K-1)	AC50 (DMS-53)	AC50 (HCC-44)	AC50 (LCLC-103H)	AC50 (NCI-H1650)	AC50 (NCI-H1944)	AC50 (NCI-H2023)	AC50 (NCI-H2347)	AC50 (NCI-H23)	AC50 (NCI-H2405)	AC50 (NCI-H810)	AC50 (NCI-H838)	AC50 (PC-14)
CN1c2ccc(F)cc2C(=O)CC12CCN(C(=O)NCc1ccc(F)c(NCCO)c1)CC2 [Example 36, 6′-fluoro-N-(4-fluoro-3-((2-hydroxyethyl)amino)benzyl)-1′-methyl-4′-oxo-3′,4′-dihydro-1′H-spiro[piperidine-4,2′-quinoline]-1-carboxamide]	> 1000 nM	> 1000 nM	> 1000 nM	705 nM	> 1000 nM	> 1000 nM	275 nM	347 nM	> 1000 nM	> 1000 nM	994 nM	> 1000 nM	> 1000 nM	308 nM
O=C1CC2(CCN(C(=O)NCc3ccc(F)cc3)CC2)Nc2ccc(F)cc21 [Example 40]	> 1000 nM	> 1000 nM	> 1000 nM	440 nM	> 1000 nM	> 1000 nM	52 nM	63 nM	> 1000 nM	> 1000 nM	474 nM	983 nM	641 nM	92 nM
